Test results taken from patent publication EP0326066A2, “Condensed diazepinones, process for their preparation and medicaments containing them” (Dr. Karl Thomae GmbH, priority 1988, dated 1989).
pIC50: −log10 of the molar value.

Legend:
[1] = biological target: muscarinischen Rezeptoren (Großhirnrinde); assay: Receptor binding test, ³H-NMS displacement, cerebral cortex homogenate; design: species or system Sprague-Dawley-Ratten; conditions: rat cerebral cortex homogenate; 0,3 n molar ³H-NMS; 30°C, 45 min; read-out: Rezeptor-Bindungs-Tests IC₅₀ Cortex
Description: (§1) Das Gesamtherz wurde […] Organe wurden abschließend in einem Potter homogenisiert. […] Die Inkubation der Organhomogenate erfolgte bei einer bestimmten Konzentration des Radioliganden und […] Testsubstanzen im Eppendorf-Zentrifugenröhrchen bei 30°C. Die Inkubationsdauer betrug 45 Minuten. Als Radioligand wurde 0,3 n molar 3H-N-Methylscopolamin (3H-NMS) verwendet. Die Inkubation wurde durch Zugabe von […] Puffer mit nachfolgender Vakuumfiltration beendet. Die Filter […] Puffer gespült und […] Summe von spezifischer und unspezifischer Bindung von 3H-NMS. Der Anteil der unspezifischen Bindung wurde definiert als jene Radioaktivität, die in Anwesenheit von 1 μ molar Quinuclidinylbenzilat gebunden wurde. […]. Die IC50-Werte der nicht-markierten Testsubstanzen […] jene Konzentration der Testsubstanz, bei welcher die spezifische Bindung von 3H-NMS an die muscarinischen Rezeptoren in den verschiedenen Organen um 50 % gehemmt wurde. Die Ergebnisse sind aus der Tabelle 1 zu […].

[2] = system: Speichelsekretion; assay: Inhibition of pilocarpine-induced salivation in the rat; format: in vivo, THOM-Ratten; conditions: urethane-anaesthetised rat, i.v.; dose reducing saliva volume by 50%; 2 mg/kg pilocarpine s.c.
Description: Nach Lavy und Mulder (Arch. int. Pharmacodyn. 178, 437-445, (1969)) erhielten mit 1,2 g/kg Urethan narkotisierte männliche THOM-Ratten steigende Dosen der Substanz i.v.. Die Speichelsekretion wurde durch s.c. Gabe von 2 mg/kg Pilocarpin ausgelöst. Der Speichel wurde mit Fließpapier aufgesaugt, die von ihm eingenommene Fläche alle 5 Minuten planimetrisch bestimmt. Die Dosis der Substanz, die das Speichelvolumen um 50% verminderte, wurde graphisch ermittelt.

[3] = system: Bronchien; assay: Inhibition of the acetylcholine effect on bronchi of the guinea pig; format: in vivo, Meerschweinchen; conditions: anaesthetised guinea pig; 10 µg/kg acetylcholine 5 min after test substance; expiratory resistance (Konzett-Rößler)
Description: (§2) Am narkotisierten Meerschweinchen wurden 5 Minuten nach Gabe der Prüfsubstanz 10 µg/kg Acetylcholin intravenös als auch gleichzeitig intraarteriell injiziert. Dabei wurde die Herzfrequenz durch extrakorporale Ableitung des EKG, der Ausatemwiderstand nach Konzett-Rößler und die Kontraktion der freigelegten Harnblase direkt registriert. Für die Hemmung der Acetylcholinwirkung an den untersuchten Organen wurden Dosis-Wirkungskurven aufgenommen und daraus -log ED₅₀-Werte bestimmt.

[4] = system: Herzfrequenz; assay: Inhibition of the acetylcholine effect on heart rate of the guinea pig; format: in vivo, Meerschweinchen; conditions: anaesthetised guinea pig; 10 µg/kg acetylcholine 5 min after test substance; heart rate (ECG)
Description: as §2, with “bestimmt. Ergebnisse siehe Tabelle III.” for “bestimmt.”

[5] = biological target: T1, muscarinischen Rezeptoren (Gesamtherz) (Rattus norvegicus, UniProt P10980); assay: Receptor binding test, ³H-NMS displacement, whole heart homogenate; design: species or system Sprague-Dawley-Ratten; conditions: 0,3 n molar ³H-NMS, 30°C, 45 min, read-out: Rezeptor-Bindungs-Tests IC₅₀ Herz
T1 construct: Das Gesamtherz wurde mit einer Schere zerkleinert; from tissue; host or cells: rat whole heart homogenate
T1 sequence (P10980 1-466): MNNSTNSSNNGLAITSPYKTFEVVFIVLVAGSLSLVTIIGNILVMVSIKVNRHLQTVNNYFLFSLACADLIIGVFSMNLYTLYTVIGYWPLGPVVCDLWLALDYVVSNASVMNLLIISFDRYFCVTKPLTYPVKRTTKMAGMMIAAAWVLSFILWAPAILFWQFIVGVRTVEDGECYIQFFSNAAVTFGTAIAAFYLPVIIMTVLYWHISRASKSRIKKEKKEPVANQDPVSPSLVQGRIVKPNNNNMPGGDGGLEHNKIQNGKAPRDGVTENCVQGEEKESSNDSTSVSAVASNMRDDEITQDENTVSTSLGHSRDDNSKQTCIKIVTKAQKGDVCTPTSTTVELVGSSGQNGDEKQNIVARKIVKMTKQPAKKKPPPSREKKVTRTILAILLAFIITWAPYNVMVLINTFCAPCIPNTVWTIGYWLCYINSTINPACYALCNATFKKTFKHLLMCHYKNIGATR
Description: as §1

[6] = system: Blase; assay: Inhibition of the acetylcholine effect on bladder of the guinea pig; format: in vivo, Meerschweinchen; conditions: anaesthetised guinea pig; 10 µg/kg acetylcholine 5 min after test substance; contraction of exposed urinary bladder
Description: as §2, with “bestimmt. Ergebnisse siehe Tabelle III.” for “bestimmt.”

[7] = system: vagale Bradykardie (M₂); assay: M1/M2 selectivity in the rat: inhibition of bradycardia evoked by vagus stimulation; format: in vivo, THOM-Ratten; conditions: i.v., dose reducing vagal bradycardia (M₂) by 50%, 5 min after injection
Description: (§3) Die angewandte Methode wurde von Hammer und Giachetti (Life Sciences 31, 2991-2998 (1982)) beschrieben. 5 Minuten nach intravenöser Injektion steigender Dosen der Substanz wurden entweder der rechte Vagus elektrisch stimuliert (Frequenz: 25 Hz; Pulsbreite: 2ms; Reizdauer: 30s; Voltzahl: supramaximal) oder 0,3 mg/kg McN-A-343 in männliche THOM-Ratten intravenös injiziert. Die durch Vagusstimulation hervorgerufene Bradykardie und der durch McN-A-343 verursachte Blutdruckanstieg wurden bestimmt. Die Dosis der Substanzen, die entweder die vagale Bradykardie (M₂) oder den Blutdruckanstieg (M₁) um 50% verminderte, wurde graphisch ermittelt. Ergebnisse siehe Tabelle II.

[8] = system: Blutdruckanstieg (M₁); assay: M1/M2 selectivity in the rat: inhibition of blood pressure rise caused by McN-A-343; format: in vivo, THOM-Ratten; conditions: i.v., dose reducing blood pressure rise (M₁) caused by 0,3 mg/kg McN-A-343 by 50%
Description: as §3

Structure (SMILES)	pIC50 [1]	-log ED₅₀ Salivation [2] [Mkg⁻¹]	-log ED₅₀ Bronchien [3] [Molkg⁻¹]	-log ED₅₀ Herz [4] [Molkg⁻¹]	pIC50 [5]	-log ED₅₀ Blase [6] [Molkg⁻¹]	-log ED₅₀ Herz [7] [Mkg⁻¹]	-log ED₅₀ Blutdruck [8] [Mkg⁻¹]
O=C1Nc2cccnc2N(C(=O)CCCCCN2CCCCC2)c2ccccc21 [A, 5,11-Dihydro-11-[6-(1-piperidinyl)-1-oxohexyl]-6H-pyrido[2,3-b][1,4]benzodiazepin-6-on]	7.22	6.65	7.49	6.88	8.00	6.20	7.75	6.42
CCN(CC)CC1CCCCN1CC(=O)N1c2ccccc2C(=O)Nc2cccnc21 (stereo not drawn) [B, 11-[[2-[(Diethylamino)methyl]-1-piperidinyl]acetyl]-5,11-dihydro-6H-pyrido[2,3-b][1,4]benzodiazepin-6-on]	5.92	5.00	5.58	5.84	6.85	4.73	6.42	5.63
CN1CCN(CC(=O)N2c3ccccc3C(=O)Nc3cccnc32)CC1 [C, 5,11-Dihydro-11-[(4-methyl-1-piperazinyl)acetyl]-6H-pyrido[2,3-b][1,4]benzodiazepin-6-on]	–	6.22	6.57	5.85	–	5.36	–	–
CN1[C@@H]2CC[C@H]1C[C@@H](OC(=O)C(CO)c1ccccc1)C2 (stereo partly drawn) [D, Atropin]	–	–	–	7.70	–	7.03	7.94	7.34
